The values that follow come from patent publication US8815927B2, “Bivalent diazo bicyclic Smac mimetics and the uses thereof” (The Regents of the University of Michigan, priority 2009, dated 2014).

In one assay the target is cIAP1 BIR3 Protein (Homo sapiens (Human), UniProt Q13490). Put plainly: Fluorescence polarization-based competitive binding assay, cIAP-1 BIR3. The conditions noted are these: 10 nM cIAP-1 BIR3 protein, 2 nM SM5F tracer. How it is done: (§1) An in vitro fluorescence polarization (FP) based binding assay was used to test the binding ability of the compounds of the present invention to certain IAP proteins (Nikolovska-Coleska et al., Anal. Biochem. 332:261-73 (2004)).
cIAP1 BIR3 Protein, sequence (Q13490 253-363): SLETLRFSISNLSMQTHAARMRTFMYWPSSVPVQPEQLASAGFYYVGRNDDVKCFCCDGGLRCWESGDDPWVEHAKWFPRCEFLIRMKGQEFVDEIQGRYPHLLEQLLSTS
(§2) Human cIAP-1 BIR3-only (residues 253-363) and cIAP2 BIR3-only (residues 238-349) were cloned into pHis-TEV vector, produced and purified using the same method as for the XIAP BIR3 protein.
(§3) In competitive binding experiments, 10 nM of cIAP-1 BIR3 protein and 2 nM of SM5F tracer were used. […] In competitive binding experiments, 25 nM of cIAP-2 BIR3 protein and 2 nM of SM5F tracer were used.
(§4) For each competitive binding experiment, polarization values were measured after 2-3 hours incubation using an Ultra plate reader. The IC50 value, the inhibitor concentration at which 50% of bound tracer was displaced, was determined from the plot using nonlinear least-squares analysis. Curve fitting was performed using the PRISM software (GraphPad Software, Inc., San Diego, Calif.). Ki value for each compound was calculated based upon the IC50 value using a previously reported algorithm and its associated computer program (Nikolovska-Coleska et al., Anal. Biochem. 332:261-73 (2004)).

The target of assay [1] is XIAP Linker-BIR2-BIR3 Protein (Homo sapiens (Human), UniProt P98170). Put plainly: Fluorescence polarization-based binding assay, XIAP Linker-BIR2-BIR3. The conditions noted are these: 3 nM XIAP protein (residues 120-356), 1 nM Smac2-F. An excerpt: An in vitro fluorescence polarization (FP) based binding assay was used to test the binding ability of the compounds of the present invention to XIAP linker-BIR2-BIR3 protein (Nikolovska-Coleska et al., Anal. Biochem. 374:87-98 (2008)).
XIAP Linker-BIR2-BIR3 Protein, sequence (P98170 120-356): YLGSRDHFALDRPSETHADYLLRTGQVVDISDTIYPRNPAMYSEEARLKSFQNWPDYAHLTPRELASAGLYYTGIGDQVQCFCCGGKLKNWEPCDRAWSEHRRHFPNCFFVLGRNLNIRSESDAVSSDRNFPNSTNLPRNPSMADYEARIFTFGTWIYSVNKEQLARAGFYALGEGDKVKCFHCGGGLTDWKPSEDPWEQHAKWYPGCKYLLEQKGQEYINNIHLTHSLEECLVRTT
For this assay a bivalent Smac peptido-mimetic labeled with a fluorescence tag (FAM), termed Smac2-F, was employed. […] The recombinant XIAP Linker-BIR2-BIR3 protein of human XIAP (residues 120-356) fused to His-tag was stable and soluble, and was used for the FP-based binding assay.
For the competitive binding experiments, a tested compound was incubated with 3 nM of XIAP protein (residues 120-356) and 1 nM of Smac2-F in the assay buffer (100 mM potassium phosphate, pH 7.5; 100 μg/ml bovine gamma globulin; 0.02% sodium azide) in black, round-bottom plates. For each experiment, the controls include XIAP and Smac2-F peptide (equivalent to 0% inhibition), and Smac-2F only (equal to 100% of inhibition). The polarization values are measured after 2 hours incubation, using the Ultra plate reader. The IC50 value, the inhibitor concentration at which 50% of bound tracer was displaced, is determined from the plot using nonlinear least-squares analysis. Curve fitting is performed using GraphPad Prism® software.
On the technique in general: Fluorescence polarisation rises when a labelled molecule tumbles more slowly, as on binding a larger partner.

Assay [2] relates to MDA-MB-231 human breast cancer cell line. Put plainly: Cancer cell growth inhibition, WST-8. The conditions noted are these: MDA-MB-231, 96 h, 4 days. The assay is classed as cell-based. The procedure: (§5) The effect of the compounds of the present invention on the growth of various cancer cell lines was tested. Cells were seeded in 96-well flat bottom cell culture plates at a density of 3000 cells/well with a tested compound and incubated at 37° C. in an atmosphere of 95% air and 5% CO2 for 4 days. The rate of cell growth inhibition after treatment with different concentrations of the compound was determined using a WST-8 kit (2-(2-methoxy-4-nitrophenyl)-3-(4-nitrophenyl)-5-(2,4 disulfophenyl)-2H-tetrazolium monosodium salt; Dojindo Molecular Technologies, Inc., Gaithersburg, Md.). WST-8 was added at a final concentration of 10% to each well, and then the plates were incubated at 37° C. for 2-3 hrs. The absorbance of the samples was measured at 450 nm using a ULTRA Tecan Reader (Molecular Device). The concentration of the tested compound that inhibited cell growth by 50% (IC50) was calculated by comparing absorbance in untreated cells and the cells treated with the tested compound.
(In general: Tetrazolium dyes change colour on reduction, which living cells bring about.)

Assay [3] concerns SK-OV-3 ovarian cancer cell line. Put plainly: Cancer cell growth inhibition, WST-8. The assay is classed as cell-based. The following applies: Homo sapiens, SK-OV-3, 96 h, 4 days. The procedure:
as §5

Another assay addresses cIAP2 BIR3 Protein (Homo sapiens (Human), UniProt Q13489). Put plainly: Fluorescence polarization-based competitive binding assay, cIAP-2 BIR3. The following applies: 25 nM cIAP-2 BIR3 protein, 2 nM SM5F tracer. The procedure:
as §1, §2, §3, §4

Assay [4] deals with breast cancer MDA-MB-231 cell line. In words: Induction of cell death, trypan blue exclusion assay. It is filed as cell-based, human. The following applies: MDA-MB-231, 48 hours, FIG. 1. How it is done: (§6) The ability of SM-1258 and SM-1267 to induce cell death was tested in the breast cancer MDA-MB-231 (FIG. 1) and ovarian cancer SK-OV-3 (FIG. 2) cell lines. Cells were treated with SM-1258 and SM-1267 for 48 hours and cell viability was determined using the trypan blue exclusion assay.

The subject of assay [5] is ovarian cancer SK-OV-3 cell line. Described as above. The assay is classed as cell-based, human. The following applies: SK-OV-3, 48 hours, FIG. 2. How it is done:
as §6

Another assay deals with XIAP BIR3 (Homo sapiens (Human), UniProt P98170). The conditions noted are these: cited from earlier work.
XIAP BIR3, sequence (P98170 241-356): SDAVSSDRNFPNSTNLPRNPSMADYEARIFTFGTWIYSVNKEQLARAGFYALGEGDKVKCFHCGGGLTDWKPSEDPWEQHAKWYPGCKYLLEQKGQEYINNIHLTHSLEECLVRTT

cIAP2 BIR3 Protein, sequence (Q13489 238-349): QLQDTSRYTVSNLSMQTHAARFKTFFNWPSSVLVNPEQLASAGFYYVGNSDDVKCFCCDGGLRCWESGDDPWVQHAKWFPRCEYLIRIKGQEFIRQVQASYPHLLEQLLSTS

On to `CN[C@@H](C)C(=O)N[C@H]1CN(C(=O)CCCCCCCCCCC(=O)N2CC[C@H]3CC[C@@H](c4nc5cccc(-c6ccccc6)c5[nH]4)N3C(=O)[C@@H](NC(=O)[C@H](C)NC)C2)CC[C@H]2CC[C@@H](c3nc4c(-c5ccccc5)cccc4[nH]3)N2C1=O` [SM-1258], for which the IC50 (in general, the point on the concentration scale where inhibition reaches its midpoint) is below 50 nM on cIAP1 BIR3 Protein, below 10 nM in assay [1], below 10 nM in assay [2] and below 20 nM in assay [3].

`CN[C@@H](C)C(=O)N[C@H]1CN(C(=O)CCCCOCCCCC(=O)N2CC[C@H]3CC[C@@H](c4nc5cccc(-c6ccccc6)c5[nH]4)N3C(=O)[C@@H](NC(=O)[C@H](C)NC)C2)CC[C@H]2CC[C@@H](c3nc4c(-c5ccccc5)cccc4[nH]3)N2C1=O` [SM-1259]: the IC50 is below 10 nM at cIAP1 BIR3 Protein, below 20 nM on cIAP2 BIR3 Protein, below 10 nM in assay [1] and below 10 nM in assay [2].

Regarding `CN[C@@H](C)C(=O)N[C@H]1CN(C(=O)CCCCC(=O)N2CC[C@H]3CC[C@@H](c4nc5cccc(-c6ccccc6)c5[nH]4)N3C(=O)[C@@H](NC(=O)[C@H](C)NC)C2)CC[C@H]2CC[C@@H](c3nc4c(-c5ccccc5)cccc4[nH]3)N2C1=O` [SM-1265], the IC50 at cIAP1 BIR3 Protein is below 10 nM; at cIAP2 BIR3 Protein it was below 10 nM; in assay [1], below 50 nM; in assay [2], below 50 nM.

`CN[C@@H](C)C(=O)N[C@H]1CN(C(=O)CCCCCCC(=O)N2CC[C@H]3CC[C@@H](c4nc5cccc(-c6ccccc6)c5[nH]4)N3C(=O)[C@@H](NC(=O)[C@H](C)NC)C2)CC[C@H]2CC[C@@H](c3nc4c(-c5ccccc5)cccc4[nH]3)N2C1=O` [SM-1266]: the IC50 at cIAP1 BIR3 Protein is below 10 nM; at cIAP2 BIR3 Protein, below 20 nM; in assay [1], below 10 nM; in assay [2], below 10 nM.

With `CN[C@@H](C)C(=O)N[C@H]1CN(C(=O)CCCCCCCCC(=O)N2CC[C@H]3CC[C@@H](c4nc5cccc(-c6ccccc6)c5[nH]4)N3C(=O)[C@@H](NC(=O)[C@H](C)NC)C2)CC[C@H]2CC[C@@H](c3nc4c(-c5ccccc5)cccc4[nH]3)N2C1=O` [SM-1267], the 50% inhibitory concentration (IC50) is below 10 nM at cIAP1 BIR3 Protein, below 50 nM on cIAP2 BIR3 Protein, below 10 nM in assay [1] and below 10 nM in assay [2]. In addition, the “induction of cell death” value in assay [4] and in assay [5] was “induced cell death” each time.

B1: mature Smac protein: second mitochondria-derived activator of caspases, mature polypeptide (protein, UniProt Q9NR28 22-239, looked up)
Diablo IAP-binding …: LCVPVVANFKKRCFSELIRPWHKTVTIGFGVTLCAVPIAQKSEPHSLSSEALMRRAVSLVTDSTSTFLSQTTYALIEAITEYTKAVYTLTSLYRQYTSLLGKMNSEEEDEVWQVIIGARAEMTSKHQEYLKLETTWMTAVGLSEMAAEAAYQTGADQASITARNHIQLVKLQVEEVHQLSRKAETKLAEAQIEELRQKTQEEGEERAESEQEAYLRED
As to B1, the Kd – broadly, the constant that tells how readily two partners part at equilibrium – with XIAP BIR3 is 420 nM.
